The record followed here is US20140024683A1, “CHLORIDE CHANNEL AND CHLORIDE TRANSPORTER MODULATORS FOR THERAPY IN SMOOTH MUSCLE DISEASES” (priority 2011, published 2014).

Molecules are shown by their SMILES. Where “and” joins values, the source holds several entries; their conditions need not be identical. Equal entries are not always repeated. Structures can show the parent of a compound that is named as a salt. Where two headings read alike, the source gives them in different places.

Test [1] relates to rat lung slices. Nature of the test: Airway lumen area in peripheral small airways of rat lung slices. The note with it: contractile agonists. The protocol: The measurement of airway contraction of a luminal area of small lung airways using the ex vivo rat lung slice method was performed as described (Perez-Zoghbi et al., 2007). The trachea was cannulated with an intravenous catheter, and after the chest cavity was opened, the collapsed lungs were reinflated with 1.3±0.1 ml of 2% agarose (low-gelling temperature) in Sigma-Hanks' Balanced Salt solution (sHBSS), followed by the injection of 0.2±0.1 of air to flush the agarose-sHBSS out of the airways and into the distal alveolar space. Subsequently, a warm (37° C.) solution of gelatin (type A, porcine skin, 300 bloom, 6% in sHBSS) was perfused through the intrapulmonary blood vessels via the pulmonary artery by injecting about 0.3 ml into the right ventricle. The warm agar and gelatin were gelled with cold sHBSS. A single lung lobe was removed and cut into serial sections of about 130 μm thick with a vibratome at about 4° C., starting at the lung periphery. Slices were maintained in DMEM (Invitrogen) at 37° C. and 10% CO2 for up to 3 days. At 37° C., the gelatin in the blood vessel lumen dissolved, leaving the blood vessel lumen empty. Lung slices were mounted in a custom-made perfusion chamber and held in place with a small sheet of nylon mesh. A second cover glass edged with silicone grease was placed over the lung slice. Perfusion of the lung slice was performed using a gravity-fed perfusion system. The volume of the chamber was about 100 μl with a perfusion rate of about 800 μl/min. […] Digital images were recorded in time lapse (30 frames/min). The area of the bronchiole and arteriole lumen was calculated, from each image, by pixel summing using custom-written software. Experiments were performed at room temperature.

For test [2], the system named is human airway smooth muscle cells. The test is described as follows: FLIPR potentiometric dye membrane potential assay (Examples 9, 12). The format is cell-based. The settings on record: 10 μM. The protocol: To determine whether blockade of CaCCs or NKCCs induce membrane potential changes in cultured human airway smooth muscle cells, the FLIPR in vitro fluorescent dye assay (Molecular Devices) was used as described by Wafford et al. (2009). Briefly, human airway smooth muscle cells were grown to 100% confluence in 96-well black-walled plates and were washed with warmed (37° C.) normal-chloride buffer [consisting of (in mM) 130 sodium chloride, 2 CaCl2, 1 MgCl2, 10 D-glucose, and 10 HEPES, pH 7.4] four times. A stock solution (100% dye) of FLIPR blue dye (Molecular Devices) was prepared by reconstitution of 1 vial (125 mg) with 100 ml of the normal-chloride buffer (assay buffer). A 50% working stock was prepared by further diluting the reconstituted blue dye 1:1 with assay buffer and was used to load cells (90 μl/well) over 20 minutes at 37° C. All reagents were dissolved in assay buffer. Baseline fluorescence was measured for 3 minutes prior to the first control additions (assay buffer). […] The fluorescence produced by membrane potential change following solution additions was quantified after subtracting changes induced by assay buffer alone.

Test [3] shares this test system. The test is described as follows: FLIPR membrane potentiometric dye assay (Example 21). Type of test: cell-based. The protocol:
Immortalized airway smooth muscle cell lines modified to stably express human telomerase reverse transcriptase were a kind gift from Dr. William Gerthoffer (University of Southern Alabama, Mobile, Ala.) prepared as described previously (Gosens et al., 2006) and grown in Dulbecco's Modified Eagle's Medium/F12 media (GIBCO, Grand Island, N.Y.), with 10% FBS and antibiotics.
Immortalized human airway smooth muscle cells were cultured on black-walled 96 well plates to 100% confluence, and were washed four times with warmed (37° C.) assay buffer of the following composition (in mM): NaCl 140, KCl 4.7, CaCl2 2.5, MgCl2 1.2, HEPES 11, D-glucose 10. A stock solution (100% dye) of FLIPR blue dye was prepared by reconstitution of 1 vial (125 mg) with 100 ml assay buffer. A 50% working stock was prepared by further diluting the reconstituted blue dye 1:1 with assay buffer and was used to load cells (90 μl/well) over 45 min at 37° C. in a humidified cell culture incubator (95% air/5% CO2). All reagents were dissolved in assay buffer. Fluorescence was measured with a Flex Station 3 (Molecular Devices) using an excitation wavelength of 530 nm, emission wavelength of 565 nm and a cutoff filter of 550 nm. Baseline fluorescence was measured every 2 seconds for 1 minute then for 2 minutes after injection of vehicle or compound of interest as indicated (using the Flexstation's 3 integrated injection capabilities).
Human airway smooth muscle cells were incubated with FLIPR membrane potentiometric dye to assess if the chloride channel blockers changed membrane potential at the cellular level. FLIPR fluorescence will increase with depolarization, and decrease with hyperpolarization. […] Therefore, chloride channel blockade, but not NKCC blockade, hyperpolarized human airway smooth muscle cells.

The test system is the same in test [4]. The test is described as follows: MQAE fluorescence assay of intracellular chloride. Type of test: cell-based. The settings on record: 10 mM TEA-acetate. The protocol: To determine whether blockade of CaCCs or NKCCs induce changes in intracellular chloride concentrations in human airway smooth muscle cells, the MQAE in vitro fluorescent dye assay (Invitrogen) was used. Briefly, human airway smooth muscle cells were grown to 100% confluence in 96-well black-walled plates. Cells were loaded overnight with 10 mM MQAE in serum-free basal cell culture medium (M199, Invitrogen) and were washed once with warmed (37° C.) normal-chloride buffer [consisting of (in mM) 130 sodium chloride, 2 CaCl2, 1 MgCl2, 10 D-glucose, and 10 HEPES, pH 7.4]. […] An increase in fluorescence represents decreased intracellular chloride (removal of halide quenching of MQAE) while decreased fluorescence represents increased intracellular chloride (enhanced halide quenching of MQAE).

In test [5] the test system is guinea pig tracheal rings. The test is described as follows: Relaxation of TEA contraction in guinea pig tracheal rings (Example 16, library screen). The settings on record: 10 mM TEA. The protocol: (§1) Animal protocols were approved by the Columbia University Animal Care and Use Committee. Male Hartley guinea pigs weighing approximately 400 g were anesthetized with intraperitoneal injection of sodium pentobarbital (100 mg/kg). Trachea were removed and transferred to ice cold Krebs-Henseleit (KH) buffer of the following composition (in mM): NaCl 118, KCl 5.6, CaCl2 0.5, MgSO4 0.24, NaH2PO4 1.3, NaHCO3 25, glucose 5.6, pH 7.4. Epithelial-denuded tracheal rings were prepared using a dissecting microscope. Epithelium was removed by gently passing cotton fibers through the lumen of the tracheal rings. The rings were suspended in 4 mL-water jacketed organ baths (37° C.: Radnoti Glass Technology, Monrovia, Calif.) and connected to a Grass FT03 force transducer (Grass Telefactor, West Warwick, R.I.) using silk sutures. The transducers were coupled to the computer with BioPac hardware and data was collected using Acqknowledge 7.3.3 software (BioPac Systems, Goleta, Calif.). KH buffer was bubbled with a gas mixture of 95% oxygen and 5% carbon dioxide and buffer was exchanged every 15 minutes for 1 hour during equilibration of tracheal rings at 1 g resting tension. […].

For test [6], the system named is guinea pig tracheal rings. Nature of the test: Relaxation of potassium gluconate contraction in guinea pig tracheal rings. The settings on record: 100 μM; 80 mM potassium gluconate. The protocol:
as §1
Many chloride channel blockers are known to also stimulate potassium channels (Greenwood et al., 2007). Thus, we performed additional studies in the presence of a large extracellular concentration of potassium to ensure that our findings of compound 1 or 13 inhibiting a TEA-induced depolarizing contraction were not due to these compounds opening a potassium channel.

Test [7] deals with human airway smooth muscle. Nature of the test: Relaxation of acetylcholine contraction in human airway smooth muscle strips. The note with it: 100 μM alone; EC50 acetylcholine. The protocol:
Studies using de-identified human tissue were reviewed by the Columbia University Institutional Review Board and deemed not human subjects research. Tissues were obtained from healthy, normal organ donor discarded surgical waste subsequent to lung transplant surgery. Tissues were collected after transplant and placed in DMEM media (GIBCO) and bubbled overnight in 5% carbon dioxide and 95% oxygen at 4° C. The following morning, the smooth muscle tissue was carefully dissected under a dissecting microscope and the epithelium removed. The strips were anchored in the organ bath as described above using KH buffer of the same composition. The strips were allowed to equilibrate for 1 hour with buffer exchanges every 15 minutes and were treated with 10^−6 M tetrodotoxin, 10^−5 M pyrilamine, and 10^−5
M MK571. Strips were contracted with an EC50 dose of acetylcholine (Ach)
This experiment was then repeated with human airway smooth muscle to investigate clinical relevance as a model of bronchospasm in humans.

Test [8] concerns guinea pig tracheal rings. The test is described as follows: Organ bath muscle force, TEA-induced contraction of guinea pig tracheal rings (Examples 1, 4, 13). The settings on record: for relaxation of TEA-induced contraction: 10 mM TEA. The protocol:
Epithelial denuded guinea pig tracheal rings were suspended in organ baths under 1 g resting tension with continuous digital recordings of muscle force. In separate studies, guinea pig airway smooth muscle cells were enzymatically dispersed and cultured.
Human muscle tissue was acquired from excess lung airways trimmed during surgery from healthy lung transplant donors. Acquired tissue was stored overnight at […]. Airway smooth muscle contractions measured ex vivo in organ baths were performed as previously described (Gallos et al., 2008; Gallos et al., 2009, Gallos et al., 2011; Gleason et al., 2010; Yim et al., 2011; Mitzuta et al., 2008). Closed guinea pig tracheal rings or strips of human airway smooth muscle (tracheal or main stem bronchus) were suspended in organ baths, which had 95% oxygen constantly perfusing through Dulbecco's Modified Eagle Medium. Rings were cut on the cartilaginous borders of the smooth muscle. The epithelial layer was dissected under microscopic assistance. Briefly, tissues were suspended in a water-jacketed (37° C.) 2-ml organ bath (Radnoti Glass Technology, Monrovia, Calif.) and attached to a Grass FT03 force transducer (Grass Telefactor, West Warwick, R.I.) coupled to a computer via BioPac hardware and Acqknowledge 7.3.3 software (Biopac Systems, Goleta, Calif.). Kreb's-Henseleit (KH) buffer was continuously bubbled with 95% oxygen and 5% carbon dioxide and tissues were allowed to equilibrate at 1 g (guinea pig) or 1.5 g (human) isotonic force for 1 hour with fresh KH buffer changes every 15 minutes.
Following equilibration, in guinea pig experiments, the capsaicin analog N-vanillylnonanamide (10 μM final) was added to the organ baths to first activate and then deplete nonadrenergic, noncholinergic nerves. […]. In experiments with human tissue, no vanillylnonanamide pretreatment was done. To avoid bias between treatment groups, tissues were contracted to individually calculated EC50 values for acetylcholine and tissues with similar Emax values were randomly assigned to treatments within individual experiments. Following extensive KH buffer changes (8-9 times) tissues were allowed to stabilize at isotonic resting tension (about 1.0 g). To remove confounding effects of other procontractile pathways, each bath received a complement of antagonists 20 minutes prior to subsequent contractile challenge. The antagonists included pyrilamine (10 μM; H1 histamine receptor antagonist), and tetrodotoxin (1 μM; blocker of endogenous cholinergic or C-fiber neuronal effects) in guinea pig experiments or pyrilamine and 10 μM MK571 (leukotriene receptor antagonist) in human tissue experiments. […]
Airway smooth muscle contractions measured ex vivo in organ baths were performed as set forth above. […]

Test [9] has as its system guinea pig tracheal rings. The test is described as follows: Potentiation of isoproterenol relaxation of acetylcholine contraction, guinea pig tracheal rings. The settings on record: Cavia porcellus, read-out: EC50 of isoproterenol-mediated relaxation of an acetylcholine contraction. The protocol: as §1
Therefore, we tested whether the chloride channel blockers or modulation of chloride flux could be used in combination with β-agonists to potentiate their effects. […]. Therefore, a combination of treatment with compound 13 and bumetanide potentiated the relaxation effect of isoproterenol.

For the compound `[Cl-].[K+]` [KCl, potassium chloride], the “percent decrease in lumen area compared to rest” value in test [1] is given as “significant decrease in lumen area”.
Take `O=c1[nH]c2cc(C(F)(F)F)ccc2n1-c1cc(C(F)(F)F)ccc1O` [NS1619]: in test [2], the “membrane potential change (FLIPR)” value was “positive control for hyperpolarization”. Besides, the “membrane potential, continuous fluorescence recording (representative tracing)” value in [3] is “hyperpolarize”.
For the compound `CC(=O)[O-].CC[N+](CC)(CC)CC` [TEA-acetate, tetraethylammonium (TEA)-acetate], in test [4], the “intracellular chloride (MQAE fluorescence)” value is given as “decreased intracellular chloride concentrations”.
For `O=C(O)c1cc(Cl)ccc1NCc1ccc(Cl)cc1` [compound 1, 5-chloro-2-((4-chlorobenzyl)amino)benzoic acid], in test [5] (100 μM), the “percent of the TEA-induced contraction remaining at 15 minutes” value is on record as 23.8±14.9% and the “relaxed fraction of a TEA-induced contraction at 15 minutes after drug addition” value was 76.2%. The “relaxation of TEA-induced contraction (screen of 20-compound chloride channel blocker library)” value in test [5] is on record as “most potently relax”. Besides, the “time to complete relaxation of TEA contraction” value in [5] (representative tracing) is no more than 15 min. Moreover, the “percent of potassium gluconate-induced contraction at 30 minutes” value in test [6] was 61.46%±6.3 and 61.5%±6.3. In addition, the “relaxation of acetylcholine contraction” value in test [7] is 45.4%±6.3. The “membrane potential, continuous fluorescence recording (representative tracing)” value in [3] is “hyperpolarize”. Moreover, in [3] (100 μM, n=12), the “change in relative fluorescent units (membrane potential, FLIPR)” value is recorded as −240.3+/−35 RFU.
In the case of `NS(=O)(=O)c1cc(C(=O)O)c(NCc2ccco2)cc1Cl` [furosemide], the “relaxation of TEA-induced contraction” value in test [8] (300 μM furosemide) was found to be 77.6%.
By EC50 is commonly meant the midpoint of the concentration-response curve. With `CC(C)NCC(O)c1ccc(O)c(O)c1` (stereo not shown) [isoproterenol], the EC50 in test [9] (vehicle) is 5.99 nM; in test [9] (with 10 μM bumetanide) it was 2.51 nM; in test [9] (with 50 μM compound 13), 2.7 nM; in test [9] (with 50 μM compound 13 and 10 μM bumetanide), 0.477 nM.
Take `COC(=O)C1=C(C)NC(C)=C(C(=O)OC)C1c1ccccc1[N+](=O)[O-]` [nifedipine]: the “relaxation of TEA-induced contraction” value in test [8] (10 μM nifedipine) is given as 111%.
With `O=C(O)c1cccnc1Nc1cccc(C(F)(F)F)c1` [water-soluble NFA, sodium salt of niflumic acid], the “potency at relaxing airway smooth muscle (muscle force at 60 minutes as a percent of initial force after TEA treatment)” value in test [8] (10 μM, water soluble form compared to hydrophobic parent NFA) is listed as “enhanced potency”.
